From patent US20220062345A1, “PHARMACEUTICAL COMPOSITION CONTAINING PROTEIN KINASE C ACTIVATOR-TREATED STEM CELLS OR CULTURE THEREOF FOR PREVENTING OR TREATING AUTOIMMUNE DISEASES” (CORESTEM CO.,LTD., priority 2018, published 2022) come the findings set out here.

Assay [1] concerns B cells. Kind of assay: Co-culture of B cells isolated from PBMC with hMSC and ODN, IgM in supernatant by ELISA. Conditions: screening of 20 types of chemicals treated to human MSC. Type of assay: cell-based. How it is done: Human mesenchymal stern cells (MSC) were obtained from hone marrow (BM) cells of human tibiae and femurs. BM cells were cultured in α-MEM medium including 10% fetal bovine serum (FBS), 2 mM L-glutamine, and penicillin/streptomycin under a condition of 37° C. and 5% CO2. Non-adherent cells were removed on day 1, and adhered cells were cultured with medium replenishment every 3 days and used between day 17 and day 20.
As substances used for the pretreatment condition for hMSC, PMA (10 ng/mL, 24-hour treatment, Sigma), I3A (10 μg/mL, 24-hour treatment, Sigma), and IFN-γ (10 ng/mL, 7-day treatment, Sigma) were used.
IFN-γ measurement'as performed according to the test method provided by R&D (#DY285-05), and for IgM, the IgM ELISA kit (eBioscience, Vienna, Austria) was used for measurement. […] Finally, the value was measured at 450 nm to 570 nm.
After B cells (1×10^5 cells/well) isolated from peripheral blood mononuclear cells (PBMC) and PMA-treated hMSC (1×10^3 cells/well) were co-cultured for 72 hours with CpG oligodeoxynucleotides (ODN, 5 μg/mL), the level of IgM in the supernatant was measured by ELISA (A in FIG. 1). T cells (1×10^5 cells/well) isolated from PBMC and PMA-treated hMSCs×10^3 cells/well) were co-cultured for 72 hours with phytohemagglutinin (PHA, 5 ug/mL), and the level of IFN-γ in the supernatant was measured by ELISA (B in FIG. 1). […]

For assay [2], the system named is MSC. Put plainly: Chemokines of MSC by RT-PCR and ELISA. Type of assay: cell-based, human. Particulars: MSC treated with PMA; mRNA (RT-PCR) and protein (ELISA). How it is done: Cells were treated with Trypsin-EDTA (Gibco) at […] at a time point when the confluency of 70% to 80% was reached, followed by culturing under a condition of 5% CO2 and 37° C. After 24 hours of material treatment, the cells were recovered, and the total RNA was isolated from the cells using the TRIZOL reagent (invitrogen, MD, USA), and the total RNA was quantified by absorbance measurement at 260 nm.
A total RNA concentration of 0.3 μg was used, and it was synthesized at 42° C. for 1 hour and at 95° C. for 5 minutes. Polymerase chain reaction was performed using 3 μL of synthesized cDNA and 10 pM of a primer. […]
(§1) The expression levels of mRNA for FasL, PD-L1, PD-L2, ICAM1, VCAM1, β-actin, IFN-γ, TNF-α, IL-12, COX-2, iNOS, IDO, TGF-β, CCL2, CCL3, CXCL10, and CXCL12 were analyzed by quantitative real-time PCR (qPCR). The relative mRNA amount of each sample was calculated based on a threshold cycle (Ct) compared to the threshold cycle (Ct) of β-actin, which is a housekeeping gene.
The chemokines of MSC were analyzed by RT-PCR (A in FIG. 2) and ELISA (B in FIG. 2) at mRNA and protein levels, respectively. […] The migration of B cells with respect to MSC was measured using a transwell, MSCs were seeded in the lower well, and B cells were seeded in the upper well. […]

In assay [3] the test system is PKC-α and δ. Kind of assay: PKC signaling in MSC by western blot. Particulars: PMA treated to MSC, 24 hours. Type of assay: cell-based, human. The procedure: Cells were lysed in ice using a cell lysis buffer (Cell Signaling Technology, Danvers, Mass., USA). Proteins were obtained by centrifugation at 12,000 rpm for 15 minutes at 4° C. The proteins were quantified using the Bradford reagent, and electrophoresis was performed at 75V with 20 μg of the proteins by using an SDS-polyacrylamide gel. After the SDS-polyacrylamide gel was transferred to a PVDF membrane at 95V for 90 minutes, 5% nonfat dry milk was added to TBS (TTBS) including 0.5% Tween 20 and blocked for 1 hour. After blocking, the membrane was placed in 5% BSA/TTBS including a primary antibody and shaken at 4° C. for one day. […] After washing the membrane with TTBS and reacting the membrane with enhanced chemiluminescence (ECL, Amersham Pharmacia Biotech, Piscataway, N.J., USA), the degree of protein expression was measured using a ChemiDoc™ XRS+ machine (Bio-Rad, CA, USA).
PMA was treated to MSC, and after 24 hours, proteins were obtained, and signaling was analyzed through western blot (A in FIG. 4). A PKC inhibitor (Go6983, 1 ug/mL) was pre-treated to MSC for 1 hour, and after PMA was treated, proteins were obtained after 24 hours, and signaling was analyzed through western blot (B in FIG. 4). […] Then, the level of IgM in the supernatant was measured by ELISA (C in FIG. 4). The mRNA levels of the surface molecules of the PMA-treated MSCs were analyzed via RT-PCR (D in FIG. 4). […]

Assay [4] has as its system MSC. Kind of assay: Surface molecules of PMA-treated MSC by RT-PCR and FACS. Type of assay: cell-based, human. Conditions: PMA treated to MSC, RT-PCR. The procedure:
as §1
PMA was treated to MSC, and after 24 hours, proteins were obtained, and signaling was analyzed through western blot (A in FIG. 4). A PKC inhibitor (Go6983, 1 ug/mL) was pre-treated to MSC for 1 hour, and after PMA was treated, proteins were obtained after 24 hours, and signaling was analyzed through western blot (B in FIG. 4). After MSC was pretreated with the PKC inhibitor (Go6983, 1 ug/mL) for 1 hour and PMA was treated, B cells (1×10^5 cells/well) that were isolated from PBMC and PMA-treated MSCs (1×10^3 cells/well) were co-cultured with ODN for 72 hours. Then, the level of IgM in the supernatant was measured by ELISA (C in FIG. 4). The mRNA levels of the surface molecules of the PMA-treated MSCs were analyzed via RT-PCR (D in FIG. 4). The expressions of PD-L1 of the PMA-treated MSC and PD1 of the B cells were analyzed through FACS (E in FIG. 4). After treating the FasL blocking Ab (10 ug/mL) (F) and the PD-L1 blocking Ab (10 ug/mL) (G) to MSCs and adding PMA, MSCs and B cells were cultured with ODN for 72 hours, and then, the IgM level in the supernatant was measured by ELISA. The PMA-treated MSCs were treated with siRNA to confirm […] at the mRNA level via RT-PCR. After the PMA-treated MSCs, in which PD-L1 was knocked down, and B cells were cultured with ODN for 72 hours, the IgM level in the supernatant was measured by ELISA (H in FIG. 4). PMA was treated to the MSCs, and after 24 hours, the total RNA was obtained, and soluble factors were analyzed via RT-PCR (I in FIG. 4).

For the molecule `CCCCCCCCCCCCCC(=O)O[C@@H]1[C@@H](C)[C@@]2(O)[C@@H](C=C(CO)C[C@]3(O)C(=O)C(C)=C[C@@H]23)[C@@H]2C(C)(C)[C@]12OC(C)=O` [PMA, phorbol myristate acetate], in assay [1], the “human B cell function” value is “inhibits”. Moreover, the “expression of CXCL10 in MSC” value in assay [2] is recorded as “increased”. Further, in assay [3], the “PKC-α and δ in the cytoplasm of MSC” value is reported as “transferred to the cell membrane”; the “phosphorylation of ERK in MSC” value is on record as “increased”. Further, in assay [4], the “FasL expression in MSC” value is “expressed” and the “PD-L2 expression in MSC” value is on record as “expressed”. In addition, the “PD-L1 expression in MSC” value in assay [4] (FACS) was “expressed”.
